Laboratory results reported in BindingDB's records for doi:10.1124/jpet.105.096792 (University of Tours, 2006).

Target: Sodium-dependent dopamine transporter (Rattus norvegicus, UniProt P23977)
Sequence (P23977 whole entry): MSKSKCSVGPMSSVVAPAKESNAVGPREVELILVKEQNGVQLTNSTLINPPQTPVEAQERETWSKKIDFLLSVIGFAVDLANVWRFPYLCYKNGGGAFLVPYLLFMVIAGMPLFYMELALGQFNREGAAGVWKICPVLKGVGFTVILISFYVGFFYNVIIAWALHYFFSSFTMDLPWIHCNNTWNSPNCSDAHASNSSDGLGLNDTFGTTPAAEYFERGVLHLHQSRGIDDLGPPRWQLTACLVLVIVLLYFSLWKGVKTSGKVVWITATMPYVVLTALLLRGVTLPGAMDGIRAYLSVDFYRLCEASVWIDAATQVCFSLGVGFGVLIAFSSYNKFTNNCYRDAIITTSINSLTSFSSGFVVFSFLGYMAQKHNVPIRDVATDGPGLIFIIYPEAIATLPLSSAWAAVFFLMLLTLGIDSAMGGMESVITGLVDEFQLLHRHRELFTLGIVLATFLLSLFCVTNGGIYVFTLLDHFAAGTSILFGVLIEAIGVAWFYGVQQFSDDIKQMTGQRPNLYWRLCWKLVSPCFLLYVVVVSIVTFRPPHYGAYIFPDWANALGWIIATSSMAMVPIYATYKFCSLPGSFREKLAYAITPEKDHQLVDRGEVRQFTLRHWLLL

SMILES | Ki
COC(=O)[C@H]1[C@@H](c2ccc(C)cc2)C[C@@H]2CC[C@H]1N2C/C=C/I | 18 nM
Cc1ccc(Sc2ccccc2CN(C)C)c(N)c1 [2-(2-Dimethylaminomethyl-phenylsulfanyl)-5-methyl-phenylamine] | 1000 nM
